# Experimental data taken from US8183388B2, “Androgen receptor modulator and uses thereof” (Eli Lilly and Company, priority 2009, dated 2012).
# How the values were obtained:
# [1] = target: T1, human PR (progesterone receptor) (Homo sapiens, UniProt P06401); experiment: Steroid hormone nuclear receptor binding assay, PR; details: HEK293 lysate overexpressing human PR, [3H]-methyltrienolone
# T1 construct: expressed in transfected cells; host or cells: HEK293 (lysate, 293-PR)
# T1 sequence (P06401 1-933): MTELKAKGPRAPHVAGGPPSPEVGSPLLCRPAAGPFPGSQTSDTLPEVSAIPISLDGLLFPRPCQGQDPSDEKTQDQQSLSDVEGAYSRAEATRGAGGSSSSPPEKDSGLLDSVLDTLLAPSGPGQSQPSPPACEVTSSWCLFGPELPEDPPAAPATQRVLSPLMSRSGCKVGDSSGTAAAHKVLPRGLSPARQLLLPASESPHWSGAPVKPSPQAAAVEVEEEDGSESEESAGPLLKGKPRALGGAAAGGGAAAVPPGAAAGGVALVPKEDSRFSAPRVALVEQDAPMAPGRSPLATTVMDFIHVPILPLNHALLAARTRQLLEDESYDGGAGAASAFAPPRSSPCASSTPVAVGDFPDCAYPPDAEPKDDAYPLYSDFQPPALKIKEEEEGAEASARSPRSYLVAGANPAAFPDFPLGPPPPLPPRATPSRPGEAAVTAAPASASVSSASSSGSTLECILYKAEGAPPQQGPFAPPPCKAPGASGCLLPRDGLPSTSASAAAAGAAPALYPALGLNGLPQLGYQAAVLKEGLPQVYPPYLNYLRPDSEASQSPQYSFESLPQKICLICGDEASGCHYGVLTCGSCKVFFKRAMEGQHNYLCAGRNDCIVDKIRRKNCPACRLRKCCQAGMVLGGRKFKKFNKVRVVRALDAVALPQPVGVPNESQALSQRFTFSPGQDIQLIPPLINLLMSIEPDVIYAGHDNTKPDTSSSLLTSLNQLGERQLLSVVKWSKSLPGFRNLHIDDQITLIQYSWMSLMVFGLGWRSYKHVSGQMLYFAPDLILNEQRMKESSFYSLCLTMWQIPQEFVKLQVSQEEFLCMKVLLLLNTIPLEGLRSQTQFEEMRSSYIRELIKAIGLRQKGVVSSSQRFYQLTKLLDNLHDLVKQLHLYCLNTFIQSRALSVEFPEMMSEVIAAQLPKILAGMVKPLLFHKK
# Experimental: (§1) Cell lysates from human embryonic kidney HEK293 cells overexpressing human MR (mineralocorticoid receptor), GR (glucocorticoid receptor), AR (androgen receptor), or PR (progesterone receptor) are used for receptor-ligand competition binding assays to determine Ki values. Typical procedures are provided below
# (§2) Briefly, steroid receptor competition binding assays are run in a buffer containing 20 mM HEPES buffer (pH=7.6), 0.2 mM EDTA, 75 mM NaCl, 1.5 mM MgCl2, 20% glycerol, 20 mM sodium molybdate, 0.2 mM DTT (dithiothreitol), 20 μg/mL aprotinin and 20 μg/mL leupeptin (assay buffer). Typically, steroid receptor binding assays include radio-labeled ligands, such as 0.25 nM [^3H]-aldosterone for MR binding, 0.3 nM [^3H]-dexamethasone for GR binding, 0.36 nM [^3H]-methyltrienolone for AR binding, and 0.29 nM [^3H]-methyltrienolone for PR binding, and either 20 μg 293-MR lysate, 20 μg 293-GR lysate, 22 μg 293-AR lysate, or 40 μg 293-PR lysate per well. Assays are typically run in 96-well format. Competing test compounds are added at various concentrations ranging from about 0.01 nM to 10 μM. Non-specific binding is determined in the presence of 500 nM aldosterone for MR binding, 500 nM dexamethasone for GR binding, or 500 nM methyltrienolone for AR and PR binding. […] After an incubation of 2 hours, plates are read in a Wallac Microbeta counter. […]
# [2] = target: T2, human GR (glucocorticoid receptor) (Homo sapiens, UniProt P04150); experiment: Steroid hormone nuclear receptor binding assay, GR; details: HEK293 lysate overexpressing human GR, [3H]-dexamethasone
# T2 construct: expressed in transfected cells; host or cells: HEK293 (lysate, 293-GR)
# T2 sequence (P04150 1-777): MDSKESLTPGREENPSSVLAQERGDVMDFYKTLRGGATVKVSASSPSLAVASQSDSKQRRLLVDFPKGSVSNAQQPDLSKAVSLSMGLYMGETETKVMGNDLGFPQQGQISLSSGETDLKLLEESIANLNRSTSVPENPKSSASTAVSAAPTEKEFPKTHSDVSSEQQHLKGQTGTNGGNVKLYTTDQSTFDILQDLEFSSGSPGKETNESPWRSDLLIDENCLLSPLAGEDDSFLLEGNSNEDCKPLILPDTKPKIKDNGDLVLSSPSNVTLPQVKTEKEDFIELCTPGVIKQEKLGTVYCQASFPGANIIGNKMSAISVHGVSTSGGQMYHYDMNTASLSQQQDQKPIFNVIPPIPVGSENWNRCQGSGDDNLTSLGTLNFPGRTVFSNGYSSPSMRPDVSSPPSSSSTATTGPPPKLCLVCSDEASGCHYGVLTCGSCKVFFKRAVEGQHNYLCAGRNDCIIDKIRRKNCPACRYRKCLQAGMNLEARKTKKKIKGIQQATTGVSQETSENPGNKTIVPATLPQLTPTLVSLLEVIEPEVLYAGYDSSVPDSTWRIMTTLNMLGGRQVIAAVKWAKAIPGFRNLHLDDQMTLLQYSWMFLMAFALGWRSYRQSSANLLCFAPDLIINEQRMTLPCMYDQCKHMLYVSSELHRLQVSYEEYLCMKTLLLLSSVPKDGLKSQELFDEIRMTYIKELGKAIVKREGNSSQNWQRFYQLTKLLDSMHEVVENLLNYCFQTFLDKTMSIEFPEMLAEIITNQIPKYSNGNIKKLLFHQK
# Experimental: as §1, §2
smiles,measurement,setting,value
"CC(C)OC(=O)N[C@H]1Cc2c(n(C[C@H]3OCC[C@@H]3O)c3ccc(C#N)cc23)C1 [compound of Formula (I), [(S)-7-Cyano-4-((2R,3S)-3-hydroxytetrahydrofuran-2-ylmethyl)-1,2,3,4-tetrahydrocyclopenta[b]indol-2-yl]-carbamic acid isopropyl ester]",Ki,[1],> 4 µM
same,Ki,[2],> 2 µM
